Reference: the NIST ThermoML archive (doi:10.1007/s10765-007-0223-x)
Several values for one entry are separate records, joined by “and”; a condition that tells them apart may be missing. Identical values can stand only once.

Legend:
[1] = 101 kPa, Liquid; for speed of sound: Single path-length method
[2] = xn = mol fraction of the nth substance listed; conditions: 101 kPa, Liquid; for speed of sound: Single path-length method

c1ccccc1 [benzene]
[1]
Conditions | mass density [kg/m3] | speed of sound [m/s]
288.15 K | 884.183 | 1345.5
290.65 K | 881.521 | 1333.4
293.15 K | 878.856 | 1321.6
295.65 K | 876.19 | 1309.9
298.15 K | 873.52 | 1298.3
300.65 K | 870.847 | 1286.7
303.15 K | 868.172 | 1275.1
305.65 K | 865.49 | 1263.6
308.15 K | 862.805 | 1252.1
310.65 K | 860.118 | 1240.7
313.15 K | 857.425 | 1229.3
315.65 K | 854.73 | 1217.9
318.15 K | 852.032 | 1206.7
320.65 K | 849.331 | 1195.5
323.15 K | 846.641 | 1184.6

CCc1ccccc1 [ethylbenzene]
[1]
Conditions | mass density [kg/m3] | speed of sound [m/s]
288.15 K | 871.245 | 1360.7
290.65 K | 869.052 | 1349.9
293.15 K | 866.856 | 1339.4
295.65 K | 864.66 | 1328.9
298.15 K | 862.459 | 1318.4
300.65 K | 860.256 | 1307.9
303.15 K | 858.047 | 1297.5
305.65 K | 855.837 | 1287.1
308.15 K | 853.622 | 1276.8
310.65 K | 851.407 | 1266.5
313.15 K | 849.186 | 1256.3
315.65 K | 846.964 | 1246.1
318.15 K | 844.741 | 1236.1
320.65 K | 842.518 | 1226.1
323.15 K | 840.306 | 1216.3

COC(C)(C)C [2-methoxy-2-methylpropane]
[1]
Conditions | mass density | speed of sound
288.15 K | 744.861 kg/m3 | 1083.4 m/s and 1082.1 m/s
290.65 K | 742.259 kg/m3 | 1071.6 m/s and 1070.6 m/s
293.15 K | 739.654 kg/m3 | 1060 m/s and 1059.1 m/s
295.65 K | 737.036 kg/m3 | 1048.5 m/s and 1047.8 m/s
298.15 K | 734.406 kg/m3 | 1036.9 m/s and 1036.6 m/s
300.65 K | 731.766 kg/m3 | 1025.4 m/s
301.65 K | 732.643 kg/m3 | 1024.3 m/s
303.15 K | 729.112 kg/m3 and 729.99 kg/m3 | 1013.9 m/s and 1014 m/s and 1012.8 m/s
305.65 K | 727.325 kg/m3 and 726.444 kg/m3 | 1002.4 m/s and 1002.7 m/s and 1001.4 m/s
308.15 K | 723.763 kg/m3 and 724.645 kg/m3 | 990.99 m/s and 991.34 m/s and 989.9 m/s
310.65 K | 721.069 kg/m3 and 721.953 kg/m3 | 979.62 m/s and 980 m/s and 978.47 m/s
313.15 K | 718.357 kg/m3 and 719.245 kg/m3 | 968.16 m/s and 968.63 m/s and 967.03 m/s
315.65 K | 715.636 kg/m3 and 716.525 kg/m3 | 956.8 m/s and 957.31 m/s and 955.73 m/s
318.15 K | 712.897 kg/m3 and 713.786 kg/m3 | 945.54 m/s and 946.03 m/s and 944.34 m/s
320.65 K | 710.141 kg/m3 and 711.028 kg/m3 | 934.24 m/s and 934.76 m/s and 933.01 m/s
323.15 K | 707.381 kg/m3 and 708.28 kg/m3 | 922.97 m/s and 923.46 m/s and 921.93 m/s

CC(C)(C)O [2-methylpropan-2-ol]
[1]
Conditions | mass density [kg/m3] | speed of sound [m/s]
301.65 K | 777.762 | 1109
303.15 K | 775.212 | 1099
305.65 K | 772.623 | 1088.3
308.15 K | 770.015 | 1077.7
310.65 K | 767.391 | 1067.2
313.15 K | 764.739 | 1056.7
315.65 K | 762.054 | 1046.1
318.15 K | 759.355 | 1035.7
320.65 K | 756.633 | 1025.2
323.15 K | 753.891 | 1014.8

CC(C)CC(C)(C)C [2,2,4-trimethylpentane] + COC(C)(C)C
[2], x2 = 0
Conditions | mass density [kg/m3] | speed of sound [m/s]
288.15 K | 695.948 | 1124.3
290.65 K | 693.91 | 1113.8
293.15 K | 691.861 | 1103.3
295.65 K | 689.809 | 1092.7
298.15 K | 687.749 | 1082.2
300.65 K | 685.687 | 1071.7
303.15 K | 683.618 | 1061.3
305.65 K | 681.542 | 1050.9
308.15 K | 679.459 | 1040.5
310.65 K | 677.373 | 1030.2
313.15 K | 675.278 | 1019.9
315.65 K | 673.177 | 1009.7
318.15 K | 671.069 | 999.53
320.65 K | 668.954 | 989.37
323.15 K | 666.832 | 979.25

c1ccccc1 [benzene] + COC(C)(C)C
[2], x2 = 0
Conditions | mass density [kg/m3] | speed of sound [m/s]
288.15 K | 884.183 | 1345.5
290.65 K | 881.521 | 1333.4
293.15 K | 878.856 | 1321.6
295.65 K | 876.19 | 1309.9
298.15 K | 873.52 | 1298.3
300.65 K | 870.847 | 1286.7
303.15 K | 868.172 | 1275.1
305.65 K | 865.49 | 1263.6
308.15 K | 862.805 | 1252.1
310.65 K | 860.118 | 1240.7
313.15 K | 857.425 | 1229.3
315.65 K | 854.73 | 1217.9
318.15 K | 852.032 | 1206.7
320.65 K | 849.331 | 1195.5
323.15 K | 846.641 | 1184.6

CC(C)(C)O [2-methylpropan-2-ol] + COC(C)(C)C
[2], x2 = 0
Conditions | mass density [kg/m3] | speed of sound [m/s]
301.65 K | 777.762 | 1109
303.15 K | 775.212 | 1099
305.65 K | 772.623 | 1088.3
308.15 K | 770.015 | 1077.7
310.65 K | 767.391 | 1067.2
313.15 K | 764.739 | 1056.7
315.65 K | 762.054 | 1046.1
318.15 K | 759.355 | 1035.7
320.65 K | 756.633 | 1025.2
323.15 K | 753.891 | 1014.8

Cc1ccccc1 [toluene] + COC(C)(C)C
[2], x2 = 0
Conditions | mass density [kg/m3] | speed of sound [m/s]
288.15 K | 871.457 | 1347.5
290.65 K | 869.144 | 1336.3
293.15 K | 866.823 | 1325.3
295.65 K | 864.5 | 1314.3
298.15 K | 862.173 | 1303.4
300.65 K | 859.845 | 1292.6
303.15 K | 857.513 | 1281.9
305.65 K | 855.175 | 1271.2
308.15 K | 852.838 | 1260.5
310.65 K | 850.494 | 1249.8
313.15 K | 848.146 | 1239.2
315.65 K | 845.794 | 1228.6
318.15 K | 843.437 | 1218
320.65 K | 841.075 | 1207.3
323.15 K | 838.706 | 1196.6

Cc1ccccc1 [toluene]
[1]
Conditions | mass density [kg/m3] | speed of sound [m/s]
288.15 K | 871.457 | 1347.5
290.65 K | 869.144 | 1336.3
293.15 K | 866.823 | 1325.3
295.65 K | 864.5 | 1314.3
298.15 K | 862.173 | 1303.4
300.65 K | 859.845 | 1292.6
303.15 K | 857.513 | 1281.9
305.65 K | 855.175 | 1271.2
308.15 K | 852.838 | 1260.5
310.65 K | 850.494 | 1249.8
313.15 K | 848.146 | 1239.2
315.65 K | 845.794 | 1228.6
318.15 K | 843.437 | 1218
320.65 K | 841.075 | 1207.3
323.15 K | 838.706 | 1196.6

COC(C)(C)C [2-methoxy-2-methylpropane] + CCc1ccccc1
[2], x1 = 1
Conditions | mass density [kg/m3] | speed of sound [m/s]
288.15 K | 744.861 | 1083.4
290.65 K | 742.259 | 1071.6
293.15 K | 739.654 | 1060
295.65 K | 737.036 | 1048.5
298.15 K | 734.406 | 1036.9
300.65 K | 731.766 | 1025.4
303.15 K | 729.112 | 1013.9
305.65 K | 726.444 | 1002.4
308.15 K | 723.763 | 990.99
310.65 K | 721.069 | 979.62
313.15 K | 718.357 | 968.16
315.65 K | 715.636 | 956.8
318.15 K | 712.897 | 945.54
320.65 K | 710.141 | 934.24
323.15 K | 707.381 | 922.97

CC(C)CC(C)(C)C [2,2,4-trimethylpentane]
[1]
Conditions | mass density [kg/m3] | speed of sound [m/s]
288.15 K | 695.948 | 1124.3
290.65 K | 693.91 | 1113.8
293.15 K | 691.861 | 1103.3
295.65 K | 689.809 | 1092.7
298.15 K | 687.749 | 1082.2
300.65 K | 685.687 | 1071.7
303.15 K | 683.618 | 1061.3
305.65 K | 681.542 | 1050.9
308.15 K | 679.459 | 1040.5
310.65 K | 677.373 | 1030.2
313.15 K | 675.278 | 1019.9
315.65 K | 673.177 | 1009.7
318.15 K | 671.069 | 999.53
320.65 K | 668.954 | 989.37
323.15 K | 666.832 | 979.25
